Molecules are shown by their SMILES.

Chain of human GPR40 (O14842 whole entry): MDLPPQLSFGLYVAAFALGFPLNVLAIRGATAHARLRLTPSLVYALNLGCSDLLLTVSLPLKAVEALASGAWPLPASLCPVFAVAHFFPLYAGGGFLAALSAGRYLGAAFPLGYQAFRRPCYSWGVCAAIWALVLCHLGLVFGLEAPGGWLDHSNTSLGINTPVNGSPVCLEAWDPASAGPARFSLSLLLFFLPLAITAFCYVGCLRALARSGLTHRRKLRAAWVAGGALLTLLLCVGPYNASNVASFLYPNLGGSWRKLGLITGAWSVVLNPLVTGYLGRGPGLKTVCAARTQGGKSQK

The assay deals with human GPR40 (Homo sapiens (Human), UniProt O14842). In words: GPR40 Calcium Flux Assay. As to conditions: transfected HEK293 cells stably expressing human GPR40; Ca2+ mobilization; mean data; read-out: hGPR40 Ca^2+ Assay EC50. The assay is classed as cell-based. As to the method:
Compounds were tested in a calcium flux assay using transfected HEK293 cells stably expressing either human GPR40 or rat GPR40. Human GPR40 expressing cells were cultured in DMEM-High Glucose media supplemented with 10% fetal bovine serum, 1×L-Glutamine, 1×Penicillin/Streptomycin and 500 μg/mL G418. Rat GPR40 expressing cells were cultured in DMEM-High Glucose media supplemented with 10% fetal bovine serum and 1 μg/mL puromycin. Cells were plated into poly-D-lysine coated 384-well plates and cultured overnight in a 37° C. humidified tissue culture incubator under 5% CO2/[…] atmosphere. On the day of the experiment, the culture media was replaced with assay buffer (HBSS, 20 mM HEPES, 0.1% BSA) and the cells incubated at 37° C. for 1 h. Calcium-sensitive fluorescent dye (Fluo 8 No-Wash Calcium Dye, ABD Bioquest) was then added and the cells incubated for another 30 min at 37° C. followed by 15 min at room temperature while protected from the light. The cell plate and a plate of diluted compounds of Formula (I) were loaded into a fluorescent plate reader that added compounds onto the cells while measuring the fluorescence intensity of each well. The plate reader recorded fluorescence intensity at 1 second intervals for 8 min and provided the data for analysis in an Excel format. EC50 values were calculated using Prism (GraphPad) software.
Background: Calcium flux is commonly read through the fluorescence of an indicator in the cells.
The term EC50 denotes the concentration at which the effect is half-maximal. For the compound `Cc1ccccc1-c1csc2ccc(COc3ccc(CCC(=O)O)cc3)cc12` [Cpd 1, 3-[4-[[3-(2-Methylphenyl)benzo[b]thiophen-5-yl]methoxy]phenyl]propanoic acid], the EC50 came out at 7 nM.
For `CC#C[C@@H](CC(=O)O)c1ccc(OCc2ccc3scc(-c4ccc(OCC5(O)CCS(=O)(=O)CC5)cc4C)c3c2)cc1` [Cpd 3, (3S)-3-[4-[[3-[4-[(4-Hydroxy-1,1-dioxo-thian-4-yl)methoxy]-2-methyl-phenyl]benzo[b]thiophen-5-yl]methoxy]phenyl]hex-4-ynoic acid], the half-maximal effective concentration (EC50) came to 5 nM.
As for `CC#C[C@@H](CC(=O)O)c1ccc(OCc2ccc3scc(-c4ccc(OCCCS(C)(=O)=O)cc4C)c3c2)cc1` [Cpd 4, (3S)-3-[4-[[3-[2-Methyl-4-(3-methylsulfonylpropoxy)phenyl]benzo[b]thiophen-5-yl]methoxy]phenyl]hex-4-ynoic acid], the EC50 was 3 nM.
`CC#C[C@@H](CC(=O)O)c1ccc(OCc2ccc3scc(-c4ccc(C(=O)N5CCS(=O)(=O)CC5)cc4C)c3c2)cc1` [Cpd 5, (3S)-3-[4-[[3-[4-(1,1-Dioxo-1,4-thiazinane-4-carbonyl)-2-methyl-phenyl]benzo[b]thiophen-5-yl]methoxy]phenyl]hex-4-ynoic acid]: the EC50 was 23 nM.
For the compound `CC#C[C@@H](CC(=O)O)c1ccc(OCc2ccc3scc(-c4ccc(C5=CCS(=O)(=O)CC5)cc4C)c3c2)cc1` [Cpd 6, (3S)-3-[4-[[3-[4-(1,1-Dioxo-3,6-dihydro-2H-thiopyran-4-yl)-2-methyl-phenyl]benzo[b]thiophen-5-yl]methoxy]phenyl]hex-4-ynoic acid], the EC50 amounted to 15 nM.
Take `CC#C[C@@H](CC(=O)O)c1ccc(OCc2ccc3scc(-c4ccc(O)cc4C)c3c2)cc1` [Cpd 7, (3S)-3-[4-[[3-(4-Hydroxy-2-methyl-phenyl)benzo[b]thiophen-5-yl]methoxy]phenyl]hex-4-ynoic acid]: the EC50 came out at 7 nM.
On to `CC#C[C@@H](CC(=O)O)c1ccc(OCc2ccc3scc(-c4ccc(C5CCS(=O)(=O)CC5)cc4C)c3c2)cc1` [Cpd 8, (3S)-3-[4-[[3-[4-(1,1-Dioxothian-4-yl)-2-methyl-phenyl]benzo[b]thiophen-5-yl]methoxy]phenyl]hex-4-ynoic acid], for which the EC50 came to 20 nM.
The value for `CC#C[C@@H](CC(=O)O)c1ccc(OCc2ccc3sc(C)c(-c4ccc(OC5CCS(=O)(=O)CC5)cc4C)c3c2)cc1` [Cpd 9, (3S)-3-[4-[[3-[4-(1,1-Dioxothian-4-yl)oxy-2-methyl-phenyl]-2-methyl-benzo[b]thiophen-5-yl]methoxy]phenyl]hex-4-ynoic acid] was 17 nM; that for `CC#C[C@@H](CC(=O)O)c1ccc(OCc2ccc3scc(-c4c(C)cccc4C)c3c2)cc1` [Cpd 10, (3S)-3-[4-[[3-(2,6-Dimethylphenyl)benzo[b]thiophen-5-yl]methoxy]phenyl]hex-4-ynoic acid] was 41 nM.
Regarding `CC#C[C@@H](CC(=O)O)c1ccc(OCc2ccc3scc(-c4ccc(OCCC5(O)CC5)cc4C)c3c2)cc1` [Cpd 11, (3S)-3-(4-((3-(4-(2-(1-Hydroxycyclopropyl)ethoxy)-2-methylphenyl)benzo[b]thiophen-5-yl)methoxy)phenyl)hex-4-ynoic acid], the EC50 was found to be 16 nM.
The result for `CC#C[C@@H](CC(=O)O)c1ccc(OCc2ccc3scc(-c4ccc(OCCC(C)(C)O)cc4C)c3c2)cc1` [Cpd 12, (3S)-3-(4-((3-(4-(3-Hydroxy-3-methylbutoxy)-2-methylphenyl)benzo[b]thiophen-5-yl)methoxy)phenyl)hex-4-ynoic acid] reads 9 nM.
As for `CC#C[C@@H](CC(=O)O)c1ccc(OCc2ccc3scc(-c4ccc(OCC(O)CO)cc4C)c3c2)cc1` (stereo partly drawn) [Cpd 13, (3S)-3-(4-((3-(4-(2,3-Dihydroxypropoxy)-2-methylphenyl)benzo[b]thiophen-5-yl)methoxy)phenyl)hex-4-ynoic acid], the EC50 is 7 nM.
The result for `CC#C[C@@H](CC(=O)O)c1ccc(OCc2ccc3scc(-c4ccc(OCC5(C)COC5)cc4C)c3c2)cc1` [Cpd 14, (3S)-3-(4-((3-(2-Methyl-4-((3-methyloxetan-3-yl)methoxy)phenyl)benzo[b]thiophen-5-yl)methoxy)phenyl)hex-4-ynoic acid] reads 9 nM; that for `CC#C[C@@H](CC(=O)O)c1ccc(OCc2ccc3scc(-c4ccc(OC5CCOCC5)cc4C)c3c2)cc1` [Cpd 15, (3S)-3-(4-((3-(2-Methyl-4-((tetrahydro-2H-pyran-4-yl)oxy)phenyl)benzo[b]thiophen-5-yl)methoxy)phenyl)hex-4-ynoic acid], 2 nM.
As to `CC#C[C@@H](CC(=O)O)c1ccc(OCc2ccc3scc(-c4ccc(OCC5CCS(=O)(=O)CC5)cc4C)c3c2)cc1` [Cpd 17, (3S)-3-(4-((3-(4-((1,1-Dioxidotetrahydro-2H-thiopyran-4-yl)methoxy)-2-methylphenyl)benzo[b]thiophen-5-yl)methoxy)phenyl)hex-4-ynoic acid], the EC50 was found to be 6 nM.
The value for `CC#C[C@@H](CC(=O)O)c1ccc(OCc2ccc3scc(-c4ccc(OCC5(C)CS(=O)(=O)C5)cc4C)c3c2)cc1` [Cpd 18, (3S)-3-(4-((3-(2-Methyl-4-((3-methyl-1,1-dioxidothietan-3-yl)methoxy)phenyl)benzo[b]thiophen-5-yl)methoxy)phenyl)hex-4-ynoic acid] was 11 nM; that for `CC#C[C@@H](CC(=O)O)c1ccc(OCc2ccc3scc(-c4ccccc4Cl)c3c2)cc1` [Cpd 19, (3S)-3-(4-((3-(2-Chlorophenyl)benzo[b]thiophen-5-yl)methoxy)phenyl)hex-4-ynoic acid] was 8 nM; that for `CC#C[C@@H](CC(=O)O)c1ccc(OCc2ccc3scc(-c4ccccc4Br)c3c2)cc1` [Cpd 20, (3S)-3-(4-((3-(2-Bromophenyl)benzo[b]thiophen-5-yl)methoxy)phenyl)hex-4-ynoic acid] was 5 nM.
The result for `CC#C[C@@H](CC(=O)O)c1ccc(OCc2ccc3scc(-c4ccccc4C(F)(F)F)c3c2)cc1` [Cpd 21, (3S)-3-(4-((3-(2-(Trifluoromethyl)phenyl)benzo[b]thiophen-5-yl)methoxy)phenyl)hex-4-ynoic acid] reads 8 nM; that for `CC#C[C@@H](CC(=O)O)c1ccc(OCc2ccc3scc(-c4cccnc4C)c3c2)cc1` [Cpd 22, (3S)-3-(4-((3-(2-Methylpyridin-3-yl)benzo[b]thiophen-5-yl)methoxy)phenyl)hex-4-ynoic acid], 8 nM; that for `CC#C[C@@H](CC(=O)O)c1ccc(COc2ccc3scc(-c4ccccc4C)c3c2)cc1` [Cpd 23, (3S)-3-(4-(((3-(2-Methylphenyl)benzo[b]thiophen-5-yl)oxy)methyl)phenyl)hex-4-ynoic acid], 10 nM.
Consider `CC#C[C@@H](CC(=O)O)c1ccc(COc2ccc3scc(-c4ccc(OCCCS(C)(=O)=O)cc4C)c3c2)cc1` [Cpd 24, (3S)-3-(4-(((3-(2-Methyl-4-(3-(methylsulfonyl)propoxy)phenyl)benzo[b]thiophen-5-yl)oxy)methyl)phenyl)hex-4-ynoic acid], for which the half-maximal effective concentration (EC50) was 9 nM.
With `CC#C[C@@H](CC(=O)O)c1ccc(COc2ccc3scc(-c4ccc(C5=CCS(=O)(=O)CC5)cc4C)c3c2)cc1` [Cpd 25, (3S)-3-(4-(((3-(4-(1,1-Dioxido-3,6-dihydro-2H-thiopyran-4-yl)-2-methylphenyl)benzo[b]thiophen-5-yl)oxy)methyl)phenyl)hex-4-ynoic acid], the EC50 was found to be 24 nM.

Source of the values: patent publication US10131648B2, “Substituted benzothiophenyl derivatives as GPR40 agonists for the treatment of type II diabetes” (Janssen Pharmaceutica NV, priority 2014, dated 2018).
